Common to all, as to type: cell-based
Assay [1] deals with T1, ΔF508 CFTR (Homo sapiens, UniProt P13569, DEL508-508). The experiment in a line: Corrector activity, YFP halide (iodide) quenching assay in FRT cells expressing ΔF508 CFTR. Further details: expressed in transfected cells; host or cells: Fischer rat thyroid (FRT) cells. The settings on record: 24 hours with compound at 37° C., forskolin and genistein. The procedure, abridged: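 FRT cells co-expressing ΔF508 CFTR and halide-sensitive YFP were incubated 24 h at 37° C with compounds, then stimulated 30 min at 37° C in PBS with forskolin and genistein. Endpoint fluorescence after iodide injection was normalized to initial reading; EC50 from 4-parameter fit with bottom constrained to DMSO control.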
T1 sequence (P13569 with tags, fused parts or gaps DEL508-508): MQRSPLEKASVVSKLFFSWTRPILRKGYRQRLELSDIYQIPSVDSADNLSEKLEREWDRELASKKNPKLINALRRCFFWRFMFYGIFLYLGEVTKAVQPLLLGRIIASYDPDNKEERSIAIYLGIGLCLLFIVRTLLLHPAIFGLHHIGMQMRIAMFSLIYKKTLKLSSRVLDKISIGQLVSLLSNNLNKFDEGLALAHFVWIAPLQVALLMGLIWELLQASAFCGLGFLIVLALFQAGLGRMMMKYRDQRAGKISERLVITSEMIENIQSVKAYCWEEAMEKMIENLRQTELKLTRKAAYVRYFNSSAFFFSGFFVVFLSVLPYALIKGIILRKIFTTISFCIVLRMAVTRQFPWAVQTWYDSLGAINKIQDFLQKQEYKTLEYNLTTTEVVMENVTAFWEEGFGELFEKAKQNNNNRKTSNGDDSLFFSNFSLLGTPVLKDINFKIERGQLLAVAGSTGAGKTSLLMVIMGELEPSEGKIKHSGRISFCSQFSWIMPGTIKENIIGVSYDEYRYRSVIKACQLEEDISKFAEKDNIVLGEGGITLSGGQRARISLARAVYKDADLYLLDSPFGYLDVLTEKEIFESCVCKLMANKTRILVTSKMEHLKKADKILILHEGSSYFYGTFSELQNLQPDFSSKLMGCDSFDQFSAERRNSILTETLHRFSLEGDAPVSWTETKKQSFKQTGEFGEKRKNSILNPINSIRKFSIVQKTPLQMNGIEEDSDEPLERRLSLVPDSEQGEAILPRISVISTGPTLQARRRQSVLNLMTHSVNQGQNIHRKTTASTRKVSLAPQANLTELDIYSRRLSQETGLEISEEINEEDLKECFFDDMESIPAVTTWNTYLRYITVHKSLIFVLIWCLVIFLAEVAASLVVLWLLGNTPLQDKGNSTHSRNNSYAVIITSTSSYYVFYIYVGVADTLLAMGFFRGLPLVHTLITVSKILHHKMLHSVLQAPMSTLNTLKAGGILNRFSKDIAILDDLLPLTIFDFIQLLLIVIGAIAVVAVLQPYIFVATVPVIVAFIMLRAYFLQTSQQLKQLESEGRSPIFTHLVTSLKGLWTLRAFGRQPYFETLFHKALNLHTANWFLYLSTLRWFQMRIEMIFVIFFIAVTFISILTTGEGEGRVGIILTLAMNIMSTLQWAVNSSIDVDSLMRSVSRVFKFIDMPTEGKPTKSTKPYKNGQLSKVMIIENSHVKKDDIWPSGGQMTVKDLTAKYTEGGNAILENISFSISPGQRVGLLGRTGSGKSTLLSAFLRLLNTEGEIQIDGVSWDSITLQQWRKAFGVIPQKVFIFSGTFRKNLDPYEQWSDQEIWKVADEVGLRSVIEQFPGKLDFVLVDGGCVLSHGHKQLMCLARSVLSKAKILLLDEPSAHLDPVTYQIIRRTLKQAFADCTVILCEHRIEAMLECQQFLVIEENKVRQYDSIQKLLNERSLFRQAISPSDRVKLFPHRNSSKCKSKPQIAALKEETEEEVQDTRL

Another assay has as its system ypt1^ts cells. The experiment in a line: Rescue of growth of ypt1^ts mutant yeast (OD600). The settings on record: Saccharomyces cerevisiae, read-out: Ypt1-ts MRC (Minimum Rescue Concentration), ypt1^ts cells, 35° C. and 37° C., OD600; multiple results separated by a comma. The source says: The activity of the compounds as modulators of protein trafficking may be measured in the assays described herein that evaluate the ability of a compound to rescue an impairment in protein trafficking. For example, the yeast mutant cell line ypt1^ts can be used to identify compounds that rescue cells from the lethal phenotype of a mutant YPT1 allele (see, e.g., Examples and Schmitt et al. (1988) Cell 53:635-47). The activity may be measured, for example, in a whole yeast cell assay using 384-well screening protocol and an optical density measurement.
The yeast mutant cell line ypt1^ts suppresses, in a temperature dependent fashion, the dominant-lethal phenotype of a mutant YPT1 allele (Schmitt et al. (1988) Cell 53:635-47). The yeast mutant cell line ypt1^ts contains an allele of YPT1 that has two point mutations: one that changes an asparagine at position 121 to a isoleucine (N121I) and another that changes an alanine at position 161 to a valine (A161V). The N121I mutation causes dominant lethality by itself, but lethality is suppressed by the second mutation, resulting in a recessive loss of function phenotype at the restrictive temperatures. ypt1^ts cells grow normally at temperatures up to 25° C., but are growth arrested at 37° C. (Id.).
Compounds were screened to assess their ability to restore growth of ypt1^ts cells. The effect of the compounds was measured on ypt1^ts cells cultured at room temperature (permissive temperature), 37° C. (non-permissive temperature), and 35° C. (semi-permissive temperature).
To determine if the test compounds could rescue the ypt1^ts mutant phenotype, ypt1^ts cells were grown overnight in synthetic complete (SC) media supplemented with 2% glucose at room temperature. Log phase cells were diluted into SC 2% glucose media to an OD600 of 0.003. 100 μL of this culture was then aliquoted into each well of 96-well flat bottom microtiter plates. 1 μL of the test compounds dissolved in DMSO (at a concentration range from 5 mM-0.005 mM) or of DMSO alone was added to each well (50 μM-0.05 μM final concentration in 1% DMSO). Plates were mixed by vortexing and incubated at 35° C. and 37° C. Compound rescue of the ypt1^ts temperature sensitive defect was assessed by measuring the OD600 (optical density at 600 nm; cell growth) of the cultures. Plates incubated at 35° C. were measured at 24 and 40 hours incubation time while plates grown at 37° C. were measured after 40 hours of incubation.
Assays monitoring the rescue of ypt1^ts mutants were performed using a vehicle, a positive control (calcium), and the compounds identified in Table II. Results in Table II corresponding to an MRC (Minimum Rescue Concentration) for ypt1^ts of greater than or equal to 50 micromolar are labeled +; of an MRC for ypt1^ts of 10-50 micromolar are labeled ++; and of an MRC for ypt1^ts of less than 10 micromolar are labeled +++. Multiple results for a particular compound are separated by a comma.

For assay [2], the target named is T1, ΔF508 CFTR. The experiment in a line: Potentiator activity, YFP halide (iodide) quenching assay in FRT cells expressing ΔF508 CFTR, 27° C. pre-incubation. More on the design: expressed in transfected cells; host or cells: Fischer rat thyroid (FRT) cells. Particulars: FRT cells ΔF508 CFTR/YFP, 24 hours at 27° C., compound with forskolin 30 min. In short, it runs like this: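 FRT cells stably co-expressing ΔF508 CFTR and halide-sensitive YFP, grown 24 h at 37° C. then 24 h at 27° C. to raise surface CFTR. Compounds in PBS with forskolin, 30 min at 37° C.; iodide injected and YFP quenching (ex 485/em 530 nm) followed. EC50 from normalized endpoint fluorescence.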

The mark [3] stands for this setting: FRT cells ΔF508 CFTR/YFP, read-out: Corrector EC50.
The mark [4] stands for this setting: Corrector EC50, FRT cells ΔF508 CFTR/YFP.

Each structure is given as a SMILES string.

`Cn1nc(-c2ccc(Cl)cc2)c2c(N)ncnc21` [compound 1]: the EC50 – broadly, the concentration needed to bring the measured effect to its halfway point – at ΔF508 CFTR [1] (setting [3]) is > 15 µM. Besides, in the assay with ypt1^ts cells, the minimal effective concentration is > 50 µM.

For the compound `Nc1ncnc2c1c(-c1ccc(Cl)cc1)nn2C1CCCCC1` [compound 3], the 50% effective concentration (EC50) at ΔF508 CFTR [1] (setting [3]) is > 15 µM. Also, in the assay on ypt1^ts cells, the minimal effective concentration is > 50 µM.

As for `Nc1ncnc2c1c(-c1ccc(Cl)cc1)nn2-c1ccccc1` [compound 4], the EC50 at ΔF508 CFTR [1] (setting [3]) was > 15 µM. In addition, the minimal effective concentration with ypt1^ts cells was > 50 µM.

As to `CC(C)(C)n1nc(-c2cccc3ccccc23)c2c(N)ncnc21` [compound 6], the EC50 on ΔF508 CFTR [1] (setting [4]) was > 15 µM. Also, the minimal effective concentration in the assay on ypt1^ts cells lay in the range of 10 to 50 µM.

`CC(C)(C)n1nc(-c2ccccc2)c2c(N)ncnc21` [compound 8]: the EC50 on ΔF508 CFTR [1] (setting [3]) was > 15 µM. In addition, in the assay with ypt1^ts cells, the minimal effective concentration is > 50 µM.

As for `CC(C)(C)n1nc(-c2cc3ccccc3s2)c2c(N)ncnc21` [compound 16, 3-Benzo[b]thiophen-2-yl-1-tert-butyl-1H-pyrazolo[3,4-d]pyrimidin-4-ylamine], on ΔF508 CFTR [1] (setting [3]), the half-maximal effective concentration (EC50) is > 15 µM. In addition, in the assay with ypt1^ts cells, the minimal effective concentration was > 50 µM.

Take `Cc1ccc(-c2nn(C(C)(C)C)c3ncnc(N)c23)cc1` [compound 24]: at ΔF508 CFTR [1] (setting [4]), the EC50 lay within 2 to 5 µM. In the assay on ypt1^ts cells, the minimal effective concentration lay within 10 to 50 µM.

Turning to `CC(C)n1nc(-c2ccc(Cl)cc2)c2c(N)ncnc21` [compound 27], at ΔF508 CFTR [1] (setting [3]), the concentration for a half-maximal effect (EC50) fell in the range of 2 to 5 µM. In addition, the minimal effective concentration with ypt1^ts cells fell in the range of 10 to 50 µM.

Turning to `Nc1ncnc2c1c(-c1ccc(Cl)cc1)nn2CC1CC1` [compound 29, 3-(4-Chloro-phenyl)-1-cyclopropylmethyl-1H-pyrazolo[3,4-d]pyrimidin-4-ylamine], the concentration for a half-maximal effect (EC50) at ΔF508 CFTR [1] (setting [3]) fell in the range of 5 to 10 µM. Moreover, the minimal effective concentration in the assay on ypt1^ts cells was < 10 µM.

Consider `C#CCn1nc(-c2ccc(Cl)cc2)c2c(N)ncnc21` [compound 30], for which the EC50 at ΔF508 CFTR [1] (setting [3]) was > 15 µM. For the same compound, in the assay with ypt1^ts cells, the minimal effective concentration was > 50 µM.

`C=CCn1nc(-c2ccc(Cl)cc2)c2c(N)ncnc21` [compound 32]: the EC50 on ΔF508 CFTR [1] (setting [3]) is > 15 µM. In addition, in the assay on ypt1^ts cells, the minimal effective concentration is > 50 µM.

For `Nc1ncnc2c1c(-c1ccc(Cl)cc1)nn2C1CCCC1` [compound 34], the minimal effective concentration in the assay on ypt1^ts cells is 10 to 50 µM. At ΔF508 CFTR [2], the EC50 is < 2 µM.

For `CC(C)(C)n1nc(-c2ccc(F)cc2)c2c(NC(=O)c3ccccc3)ncnc21` [compound 40, N-[1-tert-Butyl-3-(4-fluoro-phenyl)-1H-pyrazolo[3,4-d]pyrimidin-4-yl]-benzamide], the EC50 at ΔF508 CFTR [1] (setting [3]) was > 15 µM. In addition, the minimal effective concentration in the assay on ypt1^ts cells is > 50 µM.

In the case of `Cc1cc(-c2nn(C(C)(C)C)c3ncnc(N)c23)ccc1F` [compound 41], the half-maximal effective concentration (EC50) on ΔF508 CFTR [1] (setting [3]) was > 15 µM. The minimal effective concentration in the assay with ypt1^ts cells was > 50 µM.

As to `CCn1nc(-c2ccc(Cl)cc2)c2c(NC(C)=O)ncnc21` [compound 53], the EC50 on ΔF508 CFTR [1] (setting [3]) fell in the range of 5 to 10 µM. Besides, in the assay on ypt1^ts cells, the minimal effective concentration was > 50 µM.

Turning to `CC(C)(C)n1nc(Cc2cccc(-c3ccccc3)c2)c2c(N)ncnc21` [compound 60], in the assay with ypt1^ts cells, the minimal effective concentration was > 50 µM.

Regarding `CCc1nc(N)c2c(-c3ccc(Cl)cc3)nn(C(C)(C)C)c2n1` [compound 61], the minimal effective concentration with ypt1^ts cells is > 50 µM.

Take `CC(C)(C)n1nc(-c2ccc(Cl)cc2)c2c(N)nc(C3CC3)nc21` [compound 62]: the minimal effective concentration with ypt1^ts cells is > 50 µM.

Regarding `CC(C)(C)n1nc(-c2ccc(Cl)cc2)c2c(N)nc(CC3CC3)nc21` [compound 63], the minimal effective concentration in the assay on ypt1^ts cells is > 50 µM.

Regarding `C#Cc1cccc(Cc2nn(C(C)(C)C)c3ncnc(N)c23)c1` [compound 64], the minimal effective concentration in the assay on ypt1^ts cells was in the range of 10 to 50 µM.

With `Cc1ccc(Cc2nn(C(C)(C)C)c3ncnc(N)c23)cc1C` [compound 65], in the assay with ypt1^ts cells, the minimal effective concentration is 10 to 50 µM.

Consider `CC(C)(C)n1nc(Cc2cccc3c2OCC3)c2c(N)ncnc21` [compound 66], for which the minimal effective concentration with ypt1^ts cells fell in the range of 10 to 50 µM.

For `CC(C)(C)n1nc(Cc2cccc3ccoc23)c2c(N)ncnc21` [compound 68], the minimal effective concentration in the assay with ypt1^ts cells fell in the range of 10 to 50 µM.

On to `Cc1ccc(-c2nn(C(C)(C)C)c3nccc(N)c23)cc1` [compound 69, 1-tert-Butyl-3-p-tolyl-1H-pyrazolo[3,4-b]pyridin-4-ylamine], for which the minimal effective concentration with ypt1^ts cells is > 50 µM.

In the case of `Nc1ncnc2[nH]nc(Cc3cccc4ccccc34)c12` [compound 70], the minimal effective concentration in the assay with ypt1^ts cells was > 50 µM.

Take `CCn1nc(Cc2cccc3ccccc23)c2c(N)ncnc21` [compound 71]: in the assay on ypt1^ts cells, the minimal effective concentration was < 10 µM.

Consider `Nc1ncnc2c1c(Cc1cccc3ccccc13)nn2CC1CC1` [compound 72], for which, in the assay on ypt1^ts cells, the minimal effective concentration is < 10 µM.

As to `Nc1ncnc2c1c(Cc1cccc3ccccc13)nn2C1CC1` [compound 73], in the assay with ypt1^ts cells, the minimal effective concentration was < 10 µM.

`Nc1ncnc2c1c(Cc1cccc3ccccc13)nn2C1CCC1` [compound 74]: at ΔF508 CFTR [1] (setting [3]), the EC50 is > 15 µM. For the same compound, the minimal effective concentration in the assay on ypt1^ts cells was < 10 µM.

In the case of `CC(C)Cn1nc(Cc2cccc3ccccc23)c2c(N)ncnc21` [compound 75], in the assay on ypt1^ts cells, the minimal effective concentration is < 10 µM.

Turning to `C=CCn1nc(Cc2cccc3ccccc23)c2c(N)ncnc21` [compound 76], the minimal effective concentration in the assay on ypt1^ts cells is 10 to 50 µM.

Regarding `Nc1ncnc2c1c(Cc1cccc3ccccc13)nn2C1CCCC1` [compound 77], at ΔF508 CFTR [1] (setting [3]), the EC50 was > 15 µM. For the same compound, the minimal effective concentration with ypt1^ts cells was < 10 µM.

On to `CC(C)n1nc(Cc2cccc3ccccc23)c2c(N)ncnc21` [compound 78], for which the minimal effective concentration in the assay with ypt1^ts cells was < 10 µM.

Take `CC(C)(C)n1nc(COCc2ccccc2)c2c(N)ncnc21` [compound 81, 3-benzyloxymethyl-1-tert-butyl-1H-pyrazolo[3,4-d]pyrimidin-4-ylamine]: the minimal effective concentration with ypt1^ts cells is > 50 µM.

On to `CC(C)(C)n1nc(C(O)c2ccccc2)c2c(N)ncnc21` (centres unmarked) [compound 82, (4-amino-1-tert-butyl-1H-pyrazolo[3,4-d]pyrimidin-3-yl)-phenyl-methanol], for which, in the assay on ypt1^ts cells, the minimal effective concentration is > 50 µM.

With `CC(C)(C)n1nc(C(=O)c2ccccc2)c2c(N)ncnc21` [compound 83, (4-Amino-1-tert-butyl-1H-pyrazolo[3,4-d]pyrimidin-3-yl)-phenyl-methanone], in the assay with ypt1^ts cells, the minimal effective concentration was > 50 µM.

`CC(C)(C)n1nc(C(=O)O)c2c(N)ncnc21` [compound 85, 4-Amino-1-tert-butyl-1H-pyrazolo[3,4-d]pyrimidine-3-carboxylic acid]: the minimal effective concentration with ypt1^ts cells was > 50 µM.

Turning to `CN(C)c1cccc(C(O)c2nn(C(C)(C)C)c3ncnc(N)c23)c1` (centres unmarked) [compound 87], the minimal effective concentration in the assay with ypt1^ts cells is > 50 µM.

Turning to `CC(C)(C)n1nc(CNc2ccccc2)c2c(N)ncnc21` [compound 88], in the assay on ypt1^ts cells, the minimal effective concentration lay within 10 to 50 µM.

On to `CC(C)(C)n1nc(C(N)=O)c2c(N)ncnc21` [compound 89, 4-Amino-1-tert-butyl-1H-pyrazolo[3,4-d]pyrimidine-3-carboxylic acid amide], for which, in the assay on ypt1^ts cells, the minimal effective concentration is > 50 µM.

As for `CC(C)(C)n1nc(Cc2ccc(F)c3ccccc23)c2c(N)ncnc21` [compound 91], in the assay with ypt1^ts cells, the minimal effective concentration was < 10 µM.

Consider `CC(C)(C)n1nc(Cc2cccc3ccccc23)c2c(N)nc(C3CC3)nc21` [compound 92], for which the minimal effective concentration in the assay on ypt1^ts cells was > 50 µM.

For the origin of these results see patent US20100331297A1, “MODULATION OF PROTEIN TRAFFICKING” (FOLDRX PHARMACEUTICALS, INC., priority 2007, published 2010).
